Measurements taken from BindingDB's records for doi:10.1124/jpet.301.3.1097 (Harvard University, 2002).

Experiments:
[1] = target: Sodium-dependent dopamine transporter (Rattus norvegicus, UniProt P23977)
[2] = target: Norepinephrine transporter (Rattus norvegicus, UniProt Q9JIA2)
[3] = target: Sodium-dependent serotonin transporter (Rattus norvegicus, UniProt P31652)
Chain of Sodium-dependent serotonin transporter (P31652 whole entry): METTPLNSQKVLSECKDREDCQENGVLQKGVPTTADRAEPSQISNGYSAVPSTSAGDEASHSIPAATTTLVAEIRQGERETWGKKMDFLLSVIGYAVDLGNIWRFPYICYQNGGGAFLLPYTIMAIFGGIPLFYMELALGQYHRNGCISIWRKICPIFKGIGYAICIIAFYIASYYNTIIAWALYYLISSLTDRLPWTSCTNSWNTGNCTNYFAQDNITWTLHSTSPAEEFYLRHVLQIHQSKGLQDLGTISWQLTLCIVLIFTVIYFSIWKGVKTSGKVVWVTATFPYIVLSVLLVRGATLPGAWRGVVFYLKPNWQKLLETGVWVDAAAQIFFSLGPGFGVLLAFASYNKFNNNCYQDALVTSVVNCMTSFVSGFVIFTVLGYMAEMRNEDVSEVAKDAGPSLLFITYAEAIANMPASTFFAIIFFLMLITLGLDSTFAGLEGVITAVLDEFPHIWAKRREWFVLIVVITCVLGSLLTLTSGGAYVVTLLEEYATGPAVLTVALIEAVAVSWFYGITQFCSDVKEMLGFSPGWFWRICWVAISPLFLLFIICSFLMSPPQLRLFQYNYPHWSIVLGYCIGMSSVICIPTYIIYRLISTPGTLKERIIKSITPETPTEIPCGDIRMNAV

Chain of Sodium-dependent dopamine transporter (P23977 whole entry): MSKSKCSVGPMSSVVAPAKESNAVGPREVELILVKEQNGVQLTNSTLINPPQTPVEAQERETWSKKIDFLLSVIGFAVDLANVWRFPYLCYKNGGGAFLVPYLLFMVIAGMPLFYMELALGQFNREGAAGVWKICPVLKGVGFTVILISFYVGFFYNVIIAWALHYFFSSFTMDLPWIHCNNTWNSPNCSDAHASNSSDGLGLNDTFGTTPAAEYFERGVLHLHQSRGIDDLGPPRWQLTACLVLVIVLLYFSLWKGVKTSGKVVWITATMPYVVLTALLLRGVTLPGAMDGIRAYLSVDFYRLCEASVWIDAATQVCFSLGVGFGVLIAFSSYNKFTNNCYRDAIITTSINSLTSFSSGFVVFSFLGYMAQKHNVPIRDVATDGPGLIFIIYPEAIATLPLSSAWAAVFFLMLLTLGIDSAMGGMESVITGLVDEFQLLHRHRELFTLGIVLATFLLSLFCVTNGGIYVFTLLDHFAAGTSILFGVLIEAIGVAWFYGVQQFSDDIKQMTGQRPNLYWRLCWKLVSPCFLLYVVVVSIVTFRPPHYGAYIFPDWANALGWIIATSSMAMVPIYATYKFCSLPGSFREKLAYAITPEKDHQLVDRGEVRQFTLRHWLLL

For CCn1cc(C(=O)O)c(=O)c2ccc(Cc3ccccc3)nc21, the Ki [1] was 18.7 nM and the Ki [2] was > 10000 nM.
CNCCC(Oc1ccccc1OC)c1ccccc1 (stereo not drawn) [3-(2-methoxyphenoxy)-N-methyl-3-phenylpropan-1-amine] showed a Ki [2] of 0.46 nM.
For COCCCC/C(=N\OCCN)c1ccc(C(F)(F)F)cc1 [(1E)-5-methoxy-1-[4-(trifluoromethyl)phenyl]pentan-1-one O-(2-aminoethyl)oxime], the Ki [1] was > 10000 nM and the Ki [2] was 5000 nM.
For C[C@H](N)Cc1ccccc1 [beta-aminopropylbenzene], the Ki [2] was 1000 nM.
In the case of COC(=O)[C@H](c1ccccc1)[C@H]1CCCCN1 [methyl (2R)-phenyl[(2R)-piperidin-2-yl]acetate], the Ki [3] is reported as > 10000 nM and the Ki [2] is reported as 126 nM.
